Data: patent publication US20210379049A1, “PPAR-gamma AGONIST FOR TREATMENT OF BLOOD CANCERS” (Coherus Biosciences, Inc, priority 2016, published 2021)

Tests used:
[1] = subjects taking INT131 vs those taking pioglitazone; DePaoli et al. 2014; cited from earlier work
adiponectin [2] = assay: 14-day study: serum adiponectin levels in healthy subjects; format: in vivo, human; settings: 0.1 mg INT131 daily for 14 days
Description: A study was conducted to determine the effect of INT131 on serum adiponectin levels. Thirty healthy subjects were randomly selected to receive either placebo, 0.1 mg INT131, 1 mg INT131 or 4 mg INT131 daily for 14 days. To measure adiponectin levels blood was drawn at Days 1, 4, 8 and 14.

adiponectin [3] = assay: 24-week randomized, double-blind, placebo-controlled study: serum adiponectin levels in subjects with type 2 diabetes; format: in vivo, human; settings: for Mean Adiponectin Week 24 / Mean Adiponectin Week 0: type 2 diabetes subjects; for Mean Adiponectin Week 0: baseline (Week 0)
Description: A randomized, double-blind, placebo-controlled, 24-week study was conducted in which adiponectin levels were measured. […] 367 subjects with type 2 diabetes (TD2)—a disease in which patient adiponectin levels are reduced-were randomly assigned to receive either 0.5, 1, 2 or 3 milligrams (“mg”) of INT131 besylate, 45 mg of pioglitazone or placebo daily for 24 weeks. To measure adiponectin levels blood was drawn at Weeks 0, 2, 6, 12 and 24.
At baseline (Week 0) mean adiponectin levels were 1.94 micrograms per milliliter (“μg/mL”). The mean adiponectin levels at baseline and Week 24, and the mean change in adiponectin levels from baseline (Week 0) to Week 24 are disclosed in Table 1, below. The standard deviation for samples tested in each group is listed in (parenthesis). Mean baseline adiponectin values were similar for the treatment groups.

| Compound | edema, weight gain and hemodilution versus pioglitazone [1] | change in serum adiponectin levels from Day 1 to Day 14 and over placebo (adiponectin [2]) | treatment comparison of adiponectin levels with pioglitazone 45 mg (adiponectin [3]; 0.5 mg, 1 mg and 3 mg doses of INT131 vs pioglitazone 45 mg, p≤0.0408) | treatment comparison of adiponectin levels with placebo (adiponectin [3]; 1 mg, 2 mg and 3 mg doses of INT131 vs placebo, p≤0.0109) | Mean Adiponectin Week 24 (adiponectin [3]; Week 24, 0.5 mg INT131 daily) [µg/mL] | Mean Adiponectin Week 24 (adiponectin [3]; Week 24, 1 mg INT131 daily) [µg/mL] | Mean Adiponectin Week 24 (adiponectin [3]; Week 24, 2 mg INT131 daily) [µg/mL] | Mean Adiponectin Week 24 (adiponectin [3]; Week 24, 3 mg INT131 daily) [µg/mL] | Mean Adiponectin Week 0 (adiponectin [3]; 0.5 mg INT131 daily group) [µg/mL] | Mean Adiponectin Week 0 (adiponectin [3]; 1 mg INT131 daily group) [µg/mL] | Mean Adiponectin Week 0 (adiponectin [3]; 2 mg INT131 daily group) [µg/mL] | Mean Adiponectin Week 0 (adiponectin [3]; 3 mg INT131 daily group) [µg/mL] | Mean Adiponectin Week 24 (adiponectin [3]; Week 24, 45 mg pioglitazone daily) [µg/mL] | Mean Adiponectin Week 0 (adiponectin [3]; 45 mg pioglitazone daily group) [µg/mL] |
| --- | --- | --- | --- | --- | --- | --- | --- | --- | --- | --- | --- | --- | --- | --- |
| O=S(=O)(Nc1cc(Cl)c(Oc2cnc3ccccc3c2)c(Cl)c1)c1ccc(Cl)cc1Cl [INT131] | less edema, weight gain, and hemodilution | no significant change | statistically significant | statistically significant | 2.28 | 3.15 | 5.14 | 5.83 | 1.73 | 1.87 | 1.87 | 2.00 | – | – |
| CCc1ccc(CCOc2ccc(CC3SC(=O)NC3=O)cc2)nc1 (centres unmarked) [Pioglitazone, pioglitazone, reference compound] | – | – | – | – | – | – | – | – | – | – | – | – | 5.28 | 2.32 |
